# What was measured:
# [1] = tested on: pancreatic islets of NOD mice; experiment: Insulitis scoring and immunohistology of pancreas sections; format: in vivo, mouse
# Experimental: Pancreata were snap-frozen in Tissue Tek (Miles Laboratories, Elkhart, Ind.), and 5-μm-thick sections stained with hematoxilin and eosin. Insulitis score was quantified as follows: 0, no insulitis; 1, peri-insulitis; 2, insulitis in <50% of the islet; 3, insulitis in >50% of the islet. A mean score was calculated from 40-50 islets per individual pancreas. In addition, pancreas cryostat sections were stained with biotinylated mAb directed against CD4, CD8, B220, CD11b (all purchased from PharMingen), or CD11c (N418; American Type Culture Collection, Manassas, Va.), followed by streptavidin-peroxidase conjugate. […]
# NOD female mice were treated daily with Compound A (0.03 μg/Kg body weight per os) or vehicle from 8 to 12 or 16 weeks of age and glycemia levels were monitored until 38 weeks of age. […]
# FIG. 2. […] The results refer to the mean values ±SE of 8 mice/group, except for 1,25-dihydroxy-16,23Z-diene-26,27-hexafluoro-19-nor vitamin D3-treated mice where three mice were scored. The P values were calculated by Mann-Whitney U test. The severity of the infiltrate is shown in the right panel Islets from the same mice were scored for absence of insulitis (□, peri-insulitis (□), moderate insulitis with <50% infiltration of the islets ( ? ) , and severe insulitis, with >50% of infiltration of the islets (▪). […]
# IFN-γ = experiment: LPS-induced IFN-γ production in vivo (serum ELISA); design: species or system mouse; conditions: 0.03 μg/Kg per os 72, 48, 24, 1 h before LPS; serum 3 h post LPS
# Experimental: Lymphokine production was induced in 8 week-old female NOD mice by i.p. injection of 400 μg/mouse Salmonella abortus equi LPS (Sigma). Compound A was administered 72, 48, 24, and 1 h prior to LPS. Blood samples were collected 3 h post LPS injection and serum cytokines measured by ELISA.
# Cytokines were quantified by two-sites ELISA. IFN-γ was determined using paired mAb from PharMingen (San Diego, Calif.). For capture, the mAb was AN-18.17.24. Samples were titrated and incubated overnight at 4° C. To detect bound IFN-γ plates were then incubated with biotinylated XMG1.2 mAb. […] The plates were washed again and incubated with the developing substrate p-nitrophenylphosphate disodium (Sigma) in diethanolamine buffer (pH 9.6; 100 μl/well). The reaction was stopped by adding 50 μl/well NaOH 3N, and absorbance was read at 405 nm. ELISA for IL-12p75 was performed as described (Gately, M. K., et al., Current Protocols Immunol. 1995, 3, 15:6.16.11-16.16.15). Cytokines were quantified from two to three titration points using standard curves generated by purified recombinant mouse cytokines and results expressed as cytokine concentration in ng or pg/ml. Detection limits were 15 pg/ml for both cytokines. […]
# FIG. 3. […] IFN-γ, IL-12p75 and serum calcium levels were quantified 3 h post LPS injection. […] The P values were calculated by Mann-Whitney U test (* indicates P<0.05 vs. vehicle-treated NOD mice).
smiles,measurement,setting,value
"C[C@H](C/C=C\C(O)(C(F)(F)F)C(F)(F)F)C1=CC[C@H]2/C(=C/C=C3C[C@@H](O)C[C@H](O)C3)CCC[C@]12C [Compound A, 1,25-dihydroxy-16,23Z-diene-26,27-hexafluoro-19-nor vitamin D3]",functional islet β cells (positive staining for insulin),"[1]; at 30 weeks of age, compared to vehicle-treated NOD mice at 30 weeks",more frequent
same,score and severity of insulitis,"[1]; treated 8 to 16 weeks, analysed at 30 weeks of age, compared to 8 weeks old NOD mice",similar
same,LPS-induced IFN-γ production,IFN-γ,inhibited significantly

# From US20040214803A1, “Use of vitamin d3 analogue for the treatment of autoimmune diabetes” (priority 2001, published 2004)
